# Experimental data taken from patent US20210260036A1, “METHODS OF TREATMENT FOR ALPHA-1 ANTITRYPSIN DEFICIENCY” (Vertex Pharmaceuticals Incorporated, priority 2020, published 2021).
# Columns and labels:
# Z-AAT [1] = molecular target: T1, Z-AAT (Homo sapiens, UniProt P01009, E366K); test: Z-AAT folding, polymerization and secretion in cell line models; assay type: cell-based; settings: multiple cell line models
# Source text: (§1) 4-[5-(4-fluorophenyl)-6-tetrahydropyran-4-yl-1H-pyrrolo[2,3-f]indazol-7-yl]benzoic acid (Compound I), disclosed in PCT/US2020/032832, filed on May 14, 2020, is being developed as a treatment for AATD. […] Thus, Compound I has the potential to address both the loss-of-function and the gain-of-function aspects of the Z mutation. By restoring physiological levels of circulating AAT activity, Compound I may reduce the risk of lung disease. By preventing Z-polymer formation in the liver, Compound I may reduce the risk of developing progressive liver disease (fibrosis and cirrhosis).
# healthy subjects = test: Phase 1 randomized, double-blinded, placebo-controlled single and multiple-dose study; assay type: in vivo, human; settings: single and multiple doses
# Source text: A randomized, double-blinded, placebo-controlled single and multiple-dose Phase I study evaluating Compound I has been completed in healthy subjects.
# Z-AAT [2] = molecular target: T1, Z-AAT; test: Z-AAT folding and secretion in transgenic mice expressing human Z-AAT; assay type: in vivo; design: expressed in transfected cells; host or cells: transgenic mice expressing human Z-AAT; settings: transgenic mice engineered to express human Z-AAT
# Source text: as §1
# T1 sequence (P01009 25-418 E366K): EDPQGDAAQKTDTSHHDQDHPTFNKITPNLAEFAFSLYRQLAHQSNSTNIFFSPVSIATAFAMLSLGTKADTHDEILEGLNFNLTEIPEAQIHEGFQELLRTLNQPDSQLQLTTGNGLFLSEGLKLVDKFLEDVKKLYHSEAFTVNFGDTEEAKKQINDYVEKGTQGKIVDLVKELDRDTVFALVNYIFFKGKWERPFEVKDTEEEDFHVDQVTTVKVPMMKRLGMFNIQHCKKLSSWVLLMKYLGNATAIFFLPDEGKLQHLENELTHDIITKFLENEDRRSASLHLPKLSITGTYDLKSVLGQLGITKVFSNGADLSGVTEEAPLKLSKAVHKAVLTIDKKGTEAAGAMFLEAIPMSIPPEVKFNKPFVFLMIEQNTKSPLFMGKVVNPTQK
compound,measurement,setting,value
"O=C(O)c1ccc(-c2c(C3CCOCC3)n(-c3ccc(F)cc3)c3cc4cn[nH]c4cc23)cc1 [Compound I, 4-[5-(4-fluorophenyl)-6-tetrahydropyran-4-yl-1H-pyrrolo[2,3-f]indazol-7-yl]benzoic acid]",folding of Z-AAT,Z-AAT [1],promotes the proper folding of Z-AAT
same,intracellular Z-AAT protein polymerization,Z-AAT [1],preventing intracellular Z-AAT protein polymerization
same,secretion of functionally active AAT,Z-AAT [1],increasing secretion of functionally active AAT
same,safety and tolerability,healthy subjects,safe and well-tolerated
same,serious adverse events,healthy subjects,no serious adverse events
same,folding and secretion of functionally active AAT,Z-AAT [2],facilitates proper folding and secretion of functionally active AAT
